Earlier results on 36 molecules are cited in patent US5739081A, “Water dispersible granules of liquid pesticides” (ICI Australia Operations Proprietary Ltd., priority 1992, dated 1998).

≈ marks a conversion by molar mass, not a printed value. Where two headings read alike, the source gives them in different places.

As for `CC(C)N(Cc1ccccc1)C(=O)C(C)(C)C` [Tebutam], under “in water, in words”, the Solubility in water result was “Almost Insoluble”. With Dinocap, the Solubility in water entry (in water, in words) was “Sp. soluble”. Regarding `CCCC1COC(Cn2cncn2)(c2ccc(Cl)cc2Cl)O1` (stereo not drawn) [Propiconazole], the Solubility in water (in water) was 110 µg/mL (≈ 321 µM). Consider `CCN(CC)c1nc(C)cc(OP(=S)(OC)OC)n1` [Pirimiphos-methyl], for which the Solubility in water (in water) is 5 µg/mL (≈ 16.4 µM). For `CC1(C)C(C=C(Cl)Cl)C1C(=O)OCc1cccc(Oc2ccccc2)c1` (stereo not drawn) [Permethrin], the Solubility in water (water) is 0.2 µg/mL (≈ 0.511 µM). `CCOP(=S)(OCC)Oc1ccc([N+](=O)[O-])cc1` [Parathion]: the Solubility in water (in water) was 24 µg/mL (≈ 82.4 µM).

As for `CC1(C)[C@H](C(=O)O[C@H](C#N)c2cccc(Oc3ccccc3)c2)[C@@H]1/C=C(\Cl)C(F)(F)F` [Lambda-cyhalothrin], the Solubility in water (in water) is 0.005 µg/mL (≈ 0.0111 µM). Turning to `CCOP(=O)(N=C1SCC(C)S1)OCC` (stereo not drawn) [Mephosfolan], for the setting “in water”, the Solubility in water was 57 µg/mL (≈ 212 µM). Consider `CCCSP(=O)(OCC)Oc1cnn(-c2ccc(Cl)cc2)c1` (stereo not drawn) [Pyraclofos], for which, under “in water”, the Solubility in water was 33 µg/mL (≈ 91.5 µM). On to `CCSC(=O)N(CC(C)C)CC(C)C` [Butylate], for which the Solubility in water (in water) is 46 µg/mL (≈ 212 µM). Take `CCCSP(=O)(OCC)Oc1ccc(Br)cc1Cl` (stereo not drawn) [Profenofos]: the Solubility in water (water) is 20 µg/mL (≈ 53.5 µM). As for `CCOP(=S)(NC(C)C)Oc1ccccc1C(=O)OC(C)C` (stereo not drawn) [Isofenphos], the Solubility in water (in water) is 23.8 µg/mL (≈ 68.9 µM). Turning to `CCCCCCCCCCCCCN1CC(C)OC(C)C1` (stereo not drawn) [Tridemorph], the Solubility in water (in water) is 11.7 µg/mL (≈ 39.3 µM). In the case of `CCOC(=O)/C=C(C)/C=C/CC(C)CCCC(C)C` (stereo not drawn) [Hydroprene], the Solubility in water (in water) was 0.54 µg/mL (≈ 2.03 µM).

With `CCOP(=S)(OCC)SCCSCC` [Disulfoton], the Solubility in water (in water) was 25 µg/mL (≈ 91.1 µM).

With `CCOP(=S)(OCC)SCCl` [Chlorimephos], the Solubility in water (water) is 60 µg/mL (≈ 256 µM).

On to `CCSCCSP(=O)(OC)OC` [Demeton-S-methyl], for which the Solubility in water (in water) is 3300 µg/mL (≈ 14300 µM). Turning to `CCCCOC(=O)[C@@H](C)Oc1ccc(Oc2ccc(C(F)(F)F)cn2)cc1` [Fluazifop-P-butyl], the Solubility in water (in water) was 1 µg/mL (≈ 2.61 µM). With `CC1(C)C(/C=C(\Cl)C(F)(F)F)C1C(=O)OC(C#N)c1cccc(Oc2ccccc2)c1` (stereo not drawn) [Cyhalothrin], the Solubility in water (in water) is 0.003 µg/mL (≈ 0.00667 µM).

In the case of `CCOP(=S)(NC(C)CC)Oc1cc(C)ccc1[N+](=O)[O-]` (stereo not drawn) [Butamifos], the Solubility in water (in water) was 5.1 µg/mL (≈ 15.3 µM).

For `CCSCCSP(=S)(OC)OC` [Thiometon], the Solubility in water (in water) is 200 µg/mL (≈ 812 µM). For `CCOP(=O)(OCC)OC(=CCl)c1ccc(Cl)cc1Cl` [Chlorfenvinphos], the Solubility in water (in water) was 145 µg/mL (≈ 403 µM). In the case of `C#CCON=C1CC2CCC1(C)C2(C)C` (racemic) [Heptopargil], the Solubility in water (in water) is 1000 µg/mL (≈ 4870 µM).

For the molecule `CCCCOCN(C(=O)CCl)c1c(CC)cccc1CC` [Butachlor], the Solubility in water (in water) is 23 µg/mL (≈ 73.8 µM). Take `CCOP(=S)(OCC)Oc1cc(C)nc(C(C)C)n1` [Diazinon]: under “water”, the Solubility in water was 40 µg/mL (≈ 131 µM).

For `CON=C(Cc1cccnc1)c1ccc(Cl)cc1Cl` [Pyrifenox], the Solubility in water (in water) was 115 µg/mL (≈ 390 µM).

For `CCc1cccc(C)c1N(C(=O)CCl)C(C)COC` (stereo not drawn) [Metolachlor], the Solubility in water (in water) was 530 µg/mL (≈ 1870 µM). Take `COP(=O)(OC)OC1=C(Cl)C2C=CCC12` (stereo not drawn) [Heptenophos]: under “in water”, the Solubility in water is 2200 µg/mL (≈ 8780 µM). With `CC(Cc1ccc(C(C)(C)C)cc1)CN1C[C@@H](C)O[C@@H](C)C1` (stereo partly drawn) [Fenpropimorph], the Solubility in water (in water) was 10 µg/mL (≈ 33 µM).

As to `C#CCOS(=O)OC1CCCCC1Oc1ccc(C(C)(C)C)cc1` (stereo not drawn) [Propargite], the Solubility in water (in water) is 1.9 µg/mL (≈ 5.42 µM). As to `CCCCN(CC)C(=O)SCCC` [Pebulate], the Solubility in water (in water) was 60 µg/mL (≈ 295 µM). Regarding `CCCN(CCC)C(=O)SCc1ccccc1` [Prosulfocarb], where the note is “in water”, the Solubility in water is 13.2 µg/mL (≈ 52.5 µM). Take `CCN(CC)C(=O)SCc1ccc(Cl)cc1` [Thiobencarb]: the Solubility in water (in water) was 30 µg/mL (≈ 116 µM). With `COP(=S)(OC)Oc1ccc([N+](=O)[O-])c(C)c1` [Fenitrophion], the Solubility in water (in water) is 14 µg/mL (≈ 50.5 µM). `CCNP(=S)(OC)O/C(C)=C/C(=O)OC(C)C` (stereo not drawn) [Propetamphos]: the Solubility in water (in water) was 110 µg/mL (≈ 391 µM). For the molecule `CNC(=O)CSP(=O)(OC)OC` [Omethoate], the Solubility in water (in water) is 500 µg/mL (≈ 2350 µM).
